Measured values taken from patent publication US8598173B2, “1-[(6,7-substituted alkoxyquinoxalinyl)aminocarbonyl]-4-(hetero)arylpiperazine derivatives for treating tumors” (Korea Research Institute of Chemical Technology, priority 2004, dated 2013).
Read-outs that look alike come from different tables or passages of the source.

What was measured:
Format in all cases: cell-based, human
UMRC2 (kidney) = test: Cell growth inhibition assay (SRB), UMRC2; details: SRB method, 96 hours incubation, UMRC2 (kidney), read-out: IC50, UMRC2
Protocol: (§1) OVCAR-3, MCF-7, PC3, HepG2, A549, HT-29 and MKN-45 were grown in RPMI1640 medium (Invitrogen, Carlsbad, Calif.) supplemented with 10% fetal bovine serum (‘FBS’), 1 mM sodium pyruvate, 10 mM HEPES and 100 U/ml penicillin and […] streptomycin (‘P/S’). MDA-MB-231, HCT116, UMRC2, Caki-1, PANC-1 and HEK293 cells were maintained in Dulbecco's modified Eagle's medium (‘DMEM’, Invitrogen) supplemented with 10% FBS, P/S, 10 mM HEPES and 2 mM L-glutamine. HUVEC was maintained in M199 supplemented with basic fibroblast growth factor (‘bFGF’) […] and FBS 20%. All cells were incubated at 37° C. under humidified 5% CO2.
(§2) The growth inhibition of the substituted quinoxalin-piperazine compounds against a variety of human tumor cells was evaluated. The relative importance of particular substituent groups on the compounds was also studied. The substituted piperazine derivative compounds, prepared as described above, were tested, along with DMSO as a control.
(§3) The growth inhibition assay of various compounds against human tumor cell lines was performed using the Sulforhodamine B (‘SRB’) method (Skehan et al., J. National Cancer Institute, 1990, 82, 1107-1112). […] Triplicate wells were used for each treatment. The cells were incubated with the various compounds for 96 hours at 37° C. in a humidified 5% CO2 atmosphere. After 96-hour incubation, cells were fixed with 10% trichloroacetic acid (‘TCA’), incubated for 1 hour at 4° C., and washed 3 times with tap water. Subsequently cells were stained with 0.4% sulforhodamine B in 1% acetic acid for 30 minutes, washed 4 times with 1% acetic acid, and air-dried again. After 5 minutes agitation in 10 mM Tris solution, the absorbance of each well was measured at 530 nm using Benchmark Plus Microplate reader (Bio-Rad Laboratories, Hercules, Calif.).
(§4) To translate the OD530 values into the number of live cells in each well, the OD530 values were compared to those on standard OD530-versus-cell number curves generated for each cell line. The percent survival was calculated using the formula: % Survival=live cell number[test]/live cell number[control]×100
(§5) The IC50 values were calculated by non-linear regression analysis.

MDA-MB-231 (breast) = test: Cell growth inhibition assay (SRB), MDA-MB-231; details: SRB method, 96 hours incubation, MDA-MB-231 (breast), read-out: IC50, MDA-MB-231
Protocol: as §1, §2, §3, §4, §5

PANC-1 (pancreas) = test: Cell growth inhibition assay (SRB), PANC-1; details: SRB method, 96 hours incubation, PANC-1 (pancreas), read-out: IC50, PANC-1
Protocol: as §1, §2, §3, §4, §5

IC50 (MDA-MB-231 (breast); Homo sapiens) | IC50 (PANC-1 (pancreas); Homo sapiens) | IC50 (MDA-MB-231 (breast)) | IC50 (PANC-1 (pancreas)) | Structure (SMILES) | IC50 (UMRC2 (kidney); Homo sapiens) | IC50 (UMRC2 (kidney))
0.65 µM | 0.69 µM | – | – | COc1cc2nc(NC(=O)N3CCN(c4cc(C)cc(C)c4)CC3)c(OC)nc2cc1OC [Compound 193, 1-[(2,6,7-Trimethoxyquinoxalin-3-yl)aminocarbonyl]-4-(3,5-dimethylphenyl)piperazine] | 0.47 µM | –
– | – | 0.75 µM | 1.4 µM | COc1cc2nc(NC(=O)N3CCN(c4cccc(C(F)(F)F)c4)CC3)c(OC)nc2cc1OC [Compound 194, 1-[(2,6,7-Trimethoxyquinoxalin-3-yl)aminocarbonyl]-4-(3-trifluorotolyl)piperazine] | – | 0.79 µM
0.72 µM | 1.05 µM | – | – | COc1cc2nc(NC(=O)N3CCN(c4cccc(Br)c4)CC3)c(OC)nc2cc1OC [Compound 196, 1-[(2,6,7-Trimethoxyquinoxalin-3-yl)aminocarbonyl]-4-(3-bromophenyl)piperazine] | 0.65 µM | –

The remaining lines, values behind:

Structure (SMILES) | IC50 (MDA-MB-231 (breast); Homo sapiens) | IC50 (PANC-1 (pancreas); Homo sapiens) | IC50 (MDA-MB-231 (breast)) | IC50 (PANC-1 (pancreas)) | IC50 (UMRC2 (kidney); Homo sapiens) | IC50 (UMRC2 (kidney))
COc1nc2cc(F)c(F)cc2nc1NC(=O)N1CCN(c2cc(C)cc(C)c2)CC1 [Compound 172, 1-[(6,7-Difluoro-2-methoxyquinoxalin-3-yl)aminocarbonyl]-4-(3,5-dimethylphenyl)piperazine] | 0.7 µM | 1 µM | – | – | 0.56 µM | –
COc1cc(OC)cc(N2CCN(C(=O)Nc3nc4cc(Cl)c(Cl)cc4nc3OC)CC2)c1 [Compound 177, 1-[(6,7-Dichloro-2-methoxyquinoxalin-3-yl)aminocarbonyl]-4-(3,5-dimethoxyphenyl)piperazine] | 1.45 µM | 1.16 µM | – | – | 0.58 µM | –
COc1cc(OC)cc(N2CCN(C(=O)Nc3nc4cc(OC)c(OC)cc4nc3OC)CC2)c1 [Compound 191, 1-[(2,6,7-Trimethoxyquinoxalin-3-yl)aminocarbonyl]-4-(3,5-dimethoxyphenyl)piperazine] | 0.69 µM | 0.9 µM | – | – | 0.49 µM | –
